Drawing on ChEMBL document CHEMBL3132748, “Novel inhibitors of breast cancer relevant kinases Brk and HER2” (Medchemcomm, 2014), this text covers IC50, GI50 and inhibition for 18 molecules.

Assay [1] concerns the target Receptor tyrosine-protein kinase erbB-2 (Homo sapiens, UniProt P04626). In words: Inhibition of human recombinant GST-fused HER2 expressed in baculovirus Sf9 insect cells using poly(Glu,Tyr) as substrate after 60 mins by scintillation counting.
In assay [2] the target is T1, Protein-tyrosine kinase 6 (Homo sapiens, UniProt Q13882). In words: Inhibition of human recombinant GST-fused Brk expressed in baculovirus Sf9 insect cells using poly(Glu,Tyr) as substrate after 60 mins by scintillation counting.
Target sequence in this assay (Q13882 whole entry, the tested form may be a part): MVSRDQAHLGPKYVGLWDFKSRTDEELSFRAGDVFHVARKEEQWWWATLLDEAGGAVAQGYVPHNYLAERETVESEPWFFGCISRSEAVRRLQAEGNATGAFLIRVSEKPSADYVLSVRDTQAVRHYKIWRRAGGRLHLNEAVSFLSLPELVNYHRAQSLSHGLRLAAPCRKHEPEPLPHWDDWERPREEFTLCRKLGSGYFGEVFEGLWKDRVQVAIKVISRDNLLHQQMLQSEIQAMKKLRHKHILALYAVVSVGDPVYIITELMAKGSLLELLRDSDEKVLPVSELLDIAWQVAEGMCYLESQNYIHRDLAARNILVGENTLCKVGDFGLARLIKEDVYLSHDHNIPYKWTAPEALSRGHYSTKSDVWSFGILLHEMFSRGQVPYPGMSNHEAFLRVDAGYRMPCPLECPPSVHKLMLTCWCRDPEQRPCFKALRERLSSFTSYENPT
The test system of another assay is MDA-MB-468. In words: Antiproliferative activity against human MDA-MB-468 cells by SRB assay. Type of assay: functional.
For the next assay, the system named is MCF7. The assay is described as follows: Antiproliferative activity against human MCF7 cells by SRB assay. Type of assay: functional. For orientation: Sulforhodamine B stains cellular protein and so reports cell mass.
The target of assay [3] is T1, Protein-tyrosine kinase 6. In words: Inhibition of BRK in human T47D cells assessed as phosphorylation of STAT3 at >100 nM by Western blot analysis. The class given is cell-based. Background: Immunoblotting shows a protein as a band on a membrane.
Target sequence in this assay (Q13882 whole entry, looked up, the tested form may be a part): as the sequence (Q13882 whole entry, the tested form may be a part) above
The next assay has as its target T2, Aurora kinase C (Homo sapiens, UniProt Q9UQB9).
T2 sequence (Q9UQB9 whole entry): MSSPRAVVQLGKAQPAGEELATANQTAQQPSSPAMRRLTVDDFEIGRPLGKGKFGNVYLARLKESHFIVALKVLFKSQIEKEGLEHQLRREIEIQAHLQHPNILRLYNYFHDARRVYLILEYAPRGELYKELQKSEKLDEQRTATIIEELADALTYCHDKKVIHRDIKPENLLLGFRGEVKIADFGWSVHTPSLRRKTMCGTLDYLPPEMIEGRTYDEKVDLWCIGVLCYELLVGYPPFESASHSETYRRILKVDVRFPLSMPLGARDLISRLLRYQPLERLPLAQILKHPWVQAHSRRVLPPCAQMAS
The assay is described as follows: Inhibition of aurora-C (unknown origin) using tetra(LRRWSLG) as substrate after 60 mins by scintillation counting.

The next assay deals with T3, Aurora kinase A (Homo sapiens, UniProt O14965).
T3 sequence (O14965 whole entry): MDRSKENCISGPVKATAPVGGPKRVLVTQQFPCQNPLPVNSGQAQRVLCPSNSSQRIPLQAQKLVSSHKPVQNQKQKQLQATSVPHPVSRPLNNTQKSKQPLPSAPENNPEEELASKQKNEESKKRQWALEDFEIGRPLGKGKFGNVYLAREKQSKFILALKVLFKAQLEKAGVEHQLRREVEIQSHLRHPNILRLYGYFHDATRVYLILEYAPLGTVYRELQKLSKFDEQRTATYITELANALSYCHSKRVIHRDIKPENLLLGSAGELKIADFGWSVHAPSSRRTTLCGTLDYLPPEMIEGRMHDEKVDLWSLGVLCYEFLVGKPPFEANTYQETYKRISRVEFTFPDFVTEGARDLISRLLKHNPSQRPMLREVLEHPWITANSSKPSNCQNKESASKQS
In words: Inhibition of aurora-A (unknown origin) using tetra(LRRWSLG) as substrate after 60 mins by scintillation counting.

For assay [4], the target named is Epidermal growth factor receptor (Homo sapiens, UniProt P00533). The assay is described as follows: Inhibition of EGFR (unknown origin) using poly(Glu,Tyr) as substrate after 60 mins by scintillation counting.
Chain of Epidermal growth factor receptor (P00533 whole entry): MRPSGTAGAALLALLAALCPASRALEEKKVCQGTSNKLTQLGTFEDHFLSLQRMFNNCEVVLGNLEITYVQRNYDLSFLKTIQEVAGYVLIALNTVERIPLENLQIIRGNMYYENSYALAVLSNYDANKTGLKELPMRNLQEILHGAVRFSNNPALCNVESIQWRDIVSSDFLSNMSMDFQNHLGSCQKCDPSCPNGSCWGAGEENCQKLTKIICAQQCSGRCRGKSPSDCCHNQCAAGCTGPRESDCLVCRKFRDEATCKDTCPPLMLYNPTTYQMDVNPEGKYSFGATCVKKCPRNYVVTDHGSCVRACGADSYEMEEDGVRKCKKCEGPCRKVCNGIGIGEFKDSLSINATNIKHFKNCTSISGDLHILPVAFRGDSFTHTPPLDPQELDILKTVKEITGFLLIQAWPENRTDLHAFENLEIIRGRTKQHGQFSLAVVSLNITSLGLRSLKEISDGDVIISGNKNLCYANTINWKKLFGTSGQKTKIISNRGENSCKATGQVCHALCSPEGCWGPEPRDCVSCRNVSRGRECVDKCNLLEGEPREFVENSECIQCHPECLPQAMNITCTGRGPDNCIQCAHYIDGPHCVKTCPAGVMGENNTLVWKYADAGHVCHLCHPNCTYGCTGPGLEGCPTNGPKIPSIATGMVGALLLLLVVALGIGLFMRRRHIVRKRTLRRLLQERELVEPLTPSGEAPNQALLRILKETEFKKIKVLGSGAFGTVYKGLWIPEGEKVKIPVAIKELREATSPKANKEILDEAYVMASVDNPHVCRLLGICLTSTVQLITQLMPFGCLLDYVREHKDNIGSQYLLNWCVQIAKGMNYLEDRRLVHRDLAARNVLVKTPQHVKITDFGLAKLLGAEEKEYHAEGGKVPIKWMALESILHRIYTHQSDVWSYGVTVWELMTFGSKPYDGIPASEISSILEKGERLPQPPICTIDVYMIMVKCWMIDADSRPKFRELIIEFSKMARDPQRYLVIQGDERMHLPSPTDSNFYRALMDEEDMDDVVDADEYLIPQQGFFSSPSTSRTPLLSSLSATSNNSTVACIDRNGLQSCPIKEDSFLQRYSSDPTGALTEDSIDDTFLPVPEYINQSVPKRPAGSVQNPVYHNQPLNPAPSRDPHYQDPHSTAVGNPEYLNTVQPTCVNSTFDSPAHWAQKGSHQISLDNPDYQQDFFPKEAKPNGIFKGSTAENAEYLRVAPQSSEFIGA
The target of assay [5] is RAC-beta serine/threonine-protein kinase (Homo sapiens) (UniProt P31751). The assay is described as follows: Inhibition of AKT2 (unknown origin)using GSK3 (14 to 27) as substrate after 60 mins by scintillation counting.
In assay [6] the target is RAC-alpha serine/threonine-protein kinase (Homo sapiens) (UniProt P31749). In words: Inhibition of AKT1 (unknown origin) using GSK3 (14 to 27) as substrate after 60 mins by scintillation counting.
Assay [7] has as its target T4, Serine/threonine-protein kinase VRK1 (Homo sapiens) (UniProt Q99986).
T4 sequence (whole entry): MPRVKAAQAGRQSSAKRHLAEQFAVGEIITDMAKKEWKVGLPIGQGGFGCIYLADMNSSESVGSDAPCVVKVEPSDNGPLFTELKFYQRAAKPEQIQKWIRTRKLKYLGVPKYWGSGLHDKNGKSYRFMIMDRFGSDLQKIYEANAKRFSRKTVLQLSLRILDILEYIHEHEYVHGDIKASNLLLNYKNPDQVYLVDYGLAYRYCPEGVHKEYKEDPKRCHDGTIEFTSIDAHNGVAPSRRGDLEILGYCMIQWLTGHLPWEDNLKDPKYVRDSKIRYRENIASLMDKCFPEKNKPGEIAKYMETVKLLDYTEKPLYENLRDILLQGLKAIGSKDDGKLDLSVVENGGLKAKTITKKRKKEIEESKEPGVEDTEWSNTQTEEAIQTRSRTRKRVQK
In words: Inhibition of VRK1 (unknown origin) using RBER-CHKtide as substrate after 60 mins by scintillation counting.

Assay [8] deals with Serine/threonine-protein kinase PAK 1 (Homo sapiens) (UniProt Q13153). The assay is described as follows: Inhibition of PAK1 (unknown origin) using tetra(LRRWSLG) as substrate after 60 mins by scintillation counting.
Chain of Serine/threonine-protein kinase PAK 1 (Homo sapiens) (Q13153 whole entry): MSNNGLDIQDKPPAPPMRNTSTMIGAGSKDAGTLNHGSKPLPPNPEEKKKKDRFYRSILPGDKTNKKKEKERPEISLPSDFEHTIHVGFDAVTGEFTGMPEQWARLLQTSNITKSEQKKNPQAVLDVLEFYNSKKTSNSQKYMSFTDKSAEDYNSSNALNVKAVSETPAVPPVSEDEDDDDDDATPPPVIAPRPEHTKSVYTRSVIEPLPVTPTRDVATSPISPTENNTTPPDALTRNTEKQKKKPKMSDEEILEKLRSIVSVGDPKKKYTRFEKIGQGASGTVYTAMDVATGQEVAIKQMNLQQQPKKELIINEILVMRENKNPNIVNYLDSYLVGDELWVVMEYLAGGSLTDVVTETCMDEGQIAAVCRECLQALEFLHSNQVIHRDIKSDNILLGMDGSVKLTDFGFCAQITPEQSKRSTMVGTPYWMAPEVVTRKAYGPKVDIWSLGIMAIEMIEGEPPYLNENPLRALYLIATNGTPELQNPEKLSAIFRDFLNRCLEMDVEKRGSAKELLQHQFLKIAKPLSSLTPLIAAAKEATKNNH
Assay [9] addresses Mitogen-activated protein kinase 10 (Homo sapiens) (UniProt P53779). In words: Inhibition of JNK3 (unknown origin) using ATF2 as substrate after 60 mins by scintillation counting.
In assay [10] the target is Mitogen-activated protein kinase 8 (Homo sapiens) (UniProt P45983). In words: Inhibition of JNK1 (unknown origin) using ATF2 as substrate after 60 mins by scintillation counting.
Chain of Mitogen-activated protein kinase 8 (Homo sapiens) (P45983 whole entry): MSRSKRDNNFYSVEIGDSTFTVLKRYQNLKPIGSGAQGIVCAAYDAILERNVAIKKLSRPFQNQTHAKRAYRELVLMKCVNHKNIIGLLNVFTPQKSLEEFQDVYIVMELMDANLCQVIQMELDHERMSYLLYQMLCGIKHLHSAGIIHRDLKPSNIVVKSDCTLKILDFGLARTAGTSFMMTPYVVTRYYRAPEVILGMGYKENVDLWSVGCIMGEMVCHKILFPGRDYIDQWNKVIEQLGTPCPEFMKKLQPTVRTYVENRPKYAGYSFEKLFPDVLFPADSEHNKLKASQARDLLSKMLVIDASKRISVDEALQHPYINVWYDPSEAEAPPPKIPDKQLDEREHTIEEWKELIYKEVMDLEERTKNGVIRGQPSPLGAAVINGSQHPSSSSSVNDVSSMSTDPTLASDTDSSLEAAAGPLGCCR
Assay [11] concerns the target Mitogen-activated protein kinase 1 (Homo sapiens) (UniProt P28482). The assay is described as follows: Inhibition of ERK2 (unknown origin) using RBER-CHKtide as substrate after 60 mins by scintillation counting.

Active and inactive are the calls of the source. The rule behind the calls is not given here.

Chain of Receptor tyrosine-protein kinase erbB-2 (P04626 whole entry, the tested form may be a part): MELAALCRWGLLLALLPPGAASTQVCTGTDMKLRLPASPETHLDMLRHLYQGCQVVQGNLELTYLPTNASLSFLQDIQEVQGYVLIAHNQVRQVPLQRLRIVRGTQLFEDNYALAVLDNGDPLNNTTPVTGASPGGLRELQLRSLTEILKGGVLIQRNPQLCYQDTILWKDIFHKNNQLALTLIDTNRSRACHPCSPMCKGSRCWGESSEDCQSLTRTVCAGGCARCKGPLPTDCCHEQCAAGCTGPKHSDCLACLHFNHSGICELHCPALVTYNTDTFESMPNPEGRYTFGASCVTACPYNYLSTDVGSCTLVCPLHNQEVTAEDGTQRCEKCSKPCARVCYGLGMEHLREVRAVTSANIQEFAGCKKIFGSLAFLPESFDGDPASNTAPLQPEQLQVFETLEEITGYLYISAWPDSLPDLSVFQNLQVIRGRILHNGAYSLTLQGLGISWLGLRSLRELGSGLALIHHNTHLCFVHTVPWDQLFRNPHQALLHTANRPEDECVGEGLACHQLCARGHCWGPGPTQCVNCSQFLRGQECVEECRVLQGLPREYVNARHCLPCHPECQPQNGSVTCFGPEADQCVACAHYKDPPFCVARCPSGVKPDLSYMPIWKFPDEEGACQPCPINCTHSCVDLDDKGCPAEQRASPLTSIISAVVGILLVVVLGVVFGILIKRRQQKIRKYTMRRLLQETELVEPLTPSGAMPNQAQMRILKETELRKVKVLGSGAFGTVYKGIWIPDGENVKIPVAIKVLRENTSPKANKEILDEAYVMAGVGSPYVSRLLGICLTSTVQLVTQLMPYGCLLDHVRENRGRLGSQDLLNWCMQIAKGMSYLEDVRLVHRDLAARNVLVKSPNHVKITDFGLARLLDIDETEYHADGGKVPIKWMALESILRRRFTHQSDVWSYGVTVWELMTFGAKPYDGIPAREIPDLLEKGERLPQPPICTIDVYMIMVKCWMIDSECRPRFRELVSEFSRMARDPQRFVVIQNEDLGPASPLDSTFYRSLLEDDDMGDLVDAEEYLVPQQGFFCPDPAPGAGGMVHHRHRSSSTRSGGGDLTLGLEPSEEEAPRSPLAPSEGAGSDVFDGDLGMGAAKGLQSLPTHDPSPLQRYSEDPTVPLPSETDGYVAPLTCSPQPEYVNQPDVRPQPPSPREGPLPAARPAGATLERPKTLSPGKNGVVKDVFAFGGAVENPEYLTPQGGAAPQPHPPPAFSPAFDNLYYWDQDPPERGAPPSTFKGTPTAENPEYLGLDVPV
Chain of Mitogen-activated protein kinase 1 (Homo sapiens) (P28482 whole entry): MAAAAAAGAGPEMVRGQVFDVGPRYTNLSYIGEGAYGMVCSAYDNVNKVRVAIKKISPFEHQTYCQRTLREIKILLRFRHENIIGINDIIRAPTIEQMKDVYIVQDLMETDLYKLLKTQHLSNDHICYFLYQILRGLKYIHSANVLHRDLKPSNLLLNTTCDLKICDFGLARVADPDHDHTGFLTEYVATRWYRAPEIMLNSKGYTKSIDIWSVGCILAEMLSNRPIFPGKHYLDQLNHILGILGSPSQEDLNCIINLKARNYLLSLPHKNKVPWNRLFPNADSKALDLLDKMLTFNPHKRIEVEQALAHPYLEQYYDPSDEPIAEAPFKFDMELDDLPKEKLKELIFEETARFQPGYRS
Chain of Mitogen-activated protein kinase 10 (Homo sapiens) (P53779 whole entry): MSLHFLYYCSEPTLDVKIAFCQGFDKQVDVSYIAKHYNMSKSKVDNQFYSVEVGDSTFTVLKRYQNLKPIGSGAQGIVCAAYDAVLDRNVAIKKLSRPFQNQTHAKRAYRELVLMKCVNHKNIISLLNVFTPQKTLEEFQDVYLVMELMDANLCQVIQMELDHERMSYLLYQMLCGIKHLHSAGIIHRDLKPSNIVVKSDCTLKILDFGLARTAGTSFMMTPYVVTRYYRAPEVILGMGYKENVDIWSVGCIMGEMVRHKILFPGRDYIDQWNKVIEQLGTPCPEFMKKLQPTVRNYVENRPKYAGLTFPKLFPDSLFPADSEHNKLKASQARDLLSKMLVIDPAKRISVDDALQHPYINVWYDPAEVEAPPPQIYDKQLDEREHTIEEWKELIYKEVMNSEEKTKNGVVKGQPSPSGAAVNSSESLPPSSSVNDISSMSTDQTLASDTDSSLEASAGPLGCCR

As usually defined, the IC50 is the concentration that gives 50% inhibition. `COc1cccc(Nc2ccnc3[nH]c4ccc(S(=O)(=O)N5CCNCC5)cc4c23)c1`: the results for the IC50 in assay [1] and in [2] were 0.39 µM and 0.0048 µM, respectively.

As for `O=S(=O)(c1ccc2[nH]c3nccc(Nc4cccc(O)c4)c3c2c1)N1CCN(CCO)CC1`, the IC50 in assay [1] was 0.376 µM; in assay [2], greater than 1000 µM.

For `CCOc1cccc(Nc2ccnc3[nH]c4ccc(S(=O)(=O)N5CCN(CCO)CC5)cc4c23)c1`, the IC50 was 6.53 µM in assay [1] and 0.479 µM in assay [2].

Regarding `Clc1cccc(Nc2ccnc3[nH]c4ccccc4c23)c1`, the IC50 in assay [1] was 0.066 µM.

Take `COc1cccc(Nc2ccnc3[nH]c4ccc(S(=O)(=O)N5CCOCC5)cc4c23)c1`: the IC50 in assay [1] was found to be 1.24 µM; in assay [2], 0.0057 µM.

As a reminder, the GI50 is the concentration giving 50% growth inhibition. On to `Oc1cccc(Nc2ccnc3[nH]c4ccc(Br)cc4c23)c1`, for which the GI50 in the assay on MDA-MB-468 came to 1.35 µM; with MCF7, 0.44 µM.

Consider `CC(=O)c1ccc2[nH]c3nccc(Nc4cccc(Cl)c4)c3c2c1`, for which the IC50 was 1.15 µM in [1] and 0.013 µM in assay [2].

In the case of `O=S(=O)(c1ccc2[nH]c3nccc(Nc4cccc(O)c4)c3c2c1)N1CCOCC1`, the IC50 in assay [1] was 0.298 µM; in assay [2], greater than 1000 µM.

For `Cc1ccccc1Nc1ccnc2[nH]c3ccccc3c12`, the IC50 in [1] is 0.978 µM; in assay [2], greater than 1000 µM.

Take `CCOc1cccc(Nc2ccnc3[nH]c4ccc(S(=O)(=O)N5CCNCC5)cc4c23)c1`: the results for the IC50 in [1] and in assay [2] were 0.576 µM and 0.026 µM, respectively.

As for `O=S(=O)(c1ccc2[nH]c3nccc(Nc4cccc(OCc5ccccc5)c4)c3c2c1)N1CCOCC1`, the IC50 in assay [1] is 28.3 µM; in [2] it was 0.055 µM.

On to `CCOc1cccc(Nc2ccnc3[nH]c4ccc(S(=O)(=O)N5CCOCC5)cc4c23)c1`, for which the IC50 came out at 54.8 µM in [1] and 0.41 µM in [2].

As for `COc1cccc(Nc2ccnc3[nH]c4ccc(S(=O)(=O)N5CCN(CCO)CC5)cc4c23)c1`, the IC50 was 0.689 µM in assay [1] and 0.0092 µM in [2].

`Oc1cccc(Nc2ccnc3[nH]c4ccccc4c23)c1`: the GI50 amounted to 1 µM in the assay on MDA-MB-468 and 0.89 µM in the assay with MCF7. For the same molecule, the inhibition entry in assay [3] was “Active”. The IC50 was 0.259 µM against Aurora kinase C, 0.25 µM on Aurora kinase A, 0.27 µM in [4] and 1.3 µM in assay [1]. In addition, the inhibition entry in assay [5], in assay [6], in assay [7], in [8], in assay [9] and in assay [10] was “inactive” throughout. In addition, in assay [11], the inhibition result is “inactive”.

On to `Clc1ccc(Nc2ccnc3[nH]c4ccccc4c23)cc1`, for which the IC50 was 0.31 µM in assay [1] and greater than 1000 µM in [2].

As to `CC(=O)c1ccc2[nH]c3nccc(Nc4cccc([N+](=O)[O-])c4)c3c2c1`, the IC50 in assay [1] is 0.978 µM; in assay [2] it was 0.021 µM.

On to `CC(=O)c1ccc2[nH]c3nccc(Nc4cccc(N)c4)c3c2c1`, for which the 50% inhibitory concentration (IC50) is 1.64 µM in [1] and 0.0076 µM in assay [2].

For `CC(=O)c1ccc2[nH]c3nccc(Nc4cccc(O)c4)c3c2c1`, the IC50 in assay [1] was 0.013 µM; in assay [2], greater than 1000 µM.
